Measurements from ChEMBL document CHEMBL1201862, “PubChem BioAssay data set” (2004).
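48-hour exposure; five concentrations; linearly interpolated endpoints. GI50 marks 50% less growth.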 Active and inactive are the calls of the source. Cut-off read from the data, not from the text of the source: active = GI50 up to about 1.1 µM and inactive = higher.

Legend:
Experiment in all cases: NCI tumour cell line growth inhibition, 48 h
786-0 = system: 786-0
A549 = system: A549
ACHN = system: ACHN
BT-549 = system: BT-549
CAKI-1 = system: CAKI-1
CCRF-CEM = system: CCRF-CEM
COLO 205 = system: COLO 205
DU-145 = system: DU-145
EKVX = system: EKVX
HCT-116 = system: HCT-116
HCT-15 = system: HCT-15
HL-60 = system: HL-60
HOP-62 = system: HOP-62
HOP-92 = system: HOP-92
HT-29 = system: HT-29
Hs-578T = system: Hs-578T
IGROV-1 = system: IGROV-1
K562 = system: K562
KM12 = system: KM12
LOX IMVI = system: LOX IMVI
M14 = system: M14
MCF7 = system: MCF7
MDA-MB-231 = system: MDA-MB-231
MDA-MB-435 = system: MDA-MB-435
MDA-N = system: MDA-N
MOLT-4 = system: MOLT-4
Malme-3M = system: Malme-3M
NCI-H226 = system: NCI-H226
NCI-H23 = system: NCI-H23
NCI-H460 = system: NCI-H460
NCI-H522 = system: NCI-H522
NCI/ADR-RES = system: NCI/ADR-RES
OVCAR-3 = system: OVCAR-3
OVCAR-4 = system: OVCAR-4
OVCAR-5 = system: OVCAR-5
OVCAR-8 = system: OVCAR-8
PC-3 = system: PC-3
RPMI-8226 = system: RPMI-8226
SF-268 = system: SF-268
SF-295 = system: SF-295
SF-539 = system: SF-539
SK-MEL-28 = system: SK-MEL-28
SK-MEL-2 = system: SK-MEL-2
SK-OV-3 = system: SK-OV-3
SN12C = system: SN12C
SNB-19 = system: SNB-19
SNB-75 = system: SNB-75
SR = system: SR
SW-620 = system: SW-620
TK-10 = system: TK-10
U-251 = system: U-251
UACC-257 = system: UACC-257
UACC-62 = system: UACC-62
UO-31 = system: UO-31

Question: `Cc1ccc(/C=C2\CCCc3ccccc3C2=O)cc1` was tested. Which GI50 (786-0) did it give?
Answer: 18 µM (inactive)

Question: And the GI50 (A549)?
Answer: 5.86 µM (inactive)

Question: And the GI50 (ACHN)?
Answer: 31.8 µM (inactive)

Question: What about the GI50 (BT-549) of the same molecule?
Answer: 10.1 µM (inactive)

Question: What about the GI50 (CAKI-1) of the same molecule?
Answer: 27.2 µM (inactive)

Question: What about the GI50 (CCRF-CEM) of the same molecule?
Answer: 15.1 µM (inactive)

Question: What about the GI50 (COLO 205) of the same molecule?
Answer: 4.94 µM (inactive)

Question: And the GI50 (DU-145)?
Answer: 22.2 µM (inactive)

Question: And the GI50 (EKVX)?
Answer: 12 µM (inactive)

Question: And the GI50 (HCT-116)?
Answer: 13.7 µM (inactive)

Question: And the GI50 (HCT-15)?
Answer: 6.64 µM

Question: What about the GI50 (HL-60) of the same molecule?
Answer: 11.2 µM (inactive)

Question: What about the GI50 (HOP-62) of the same molecule?
Answer: 9.2 µM (inactive)

Question: And the GI50 (HOP-92)?
Answer: 18.5 µM (inactive)

Question: What about the GI50 (HT-29) of the same molecule?
Answer: 3.18 µM (inactive)

Question: And the GI50 (Hs-578T)?
Answer: 12.4 µM (inactive)

Question: And the GI50 (IGROV-1)?
Answer: 7.14 µM (inactive)

Question: And the GI50 (K562)?
Answer: 12.2 µM (inactive)

Question: And the GI50 (KM12)?
Answer: 4.11 µM (inactive)

Question: What about the GI50 (LOX IMVI) of the same molecule?
Answer: 14.9 µM (inactive)

Question: And the GI50 (M14)?
Answer: 3.21 µM (inactive)

Question: And the GI50 (MCF7)?
Answer: 18.3 µM (inactive)

Question: What about the GI50 (MDA-MB-231) of the same molecule?
Answer: 9.62 µM (inactive)

Question: What about the GI50 (MDA-MB-435) of the same molecule?
Answer: 2.6 µM (inactive)

Question: And the GI50 (MDA-N)?
Answer: 1.86 µM (inactive)

Question: What about the GI50 (MOLT-4) of the same molecule?
Answer: 17.7 µM (inactive)

Question: And the GI50 (Malme-3M)?
Answer: 8.95 µM (inactive)

Question: What about the GI50 (NCI-H226) of the same molecule?
Answer: 6.46 µM (inactive)

Question: What about the GI50 (NCI-H23) of the same molecule?
Answer: 9.2 µM (inactive)

Question: And the GI50 (NCI-H460)?
Answer: 7.23 µM (inactive)

Question: What about the GI50 (NCI-H522) of the same molecule?
Answer: 6.25 µM (inactive)

Question: And the GI50 (NCI/ADR-RES)?
Answer: 8.67 µM (inactive)

Question: What about the GI50 (OVCAR-3) of the same molecule?
Answer: 15 µM (inactive)

Question: What about the GI50 (OVCAR-4) of the same molecule?
Answer: 25.9 µM (inactive)

Question: And the GI50 (OVCAR-5)?
Answer: 10.3 µM (inactive)

Question: What about the GI50 (OVCAR-8) of the same molecule?
Answer: 22.4 µM (inactive)

Question: What about the GI50 (PC-3) of the same molecule?
Answer: 14.7 µM (inactive)

Question: What about the GI50 (RPMI-8226) of the same molecule?
Answer: 16.3 µM (inactive)

Question: And the GI50 (SF-268)?
Answer: 11.2 µM (inactive)

Question: And the GI50 (SF-295)?
Answer: 3.45 µM (inactive)

Question: What about the GI50 (SF-539) of the same molecule?
Answer: 13.8 µM (inactive)

Question: And the GI50 (SK-MEL-28)?
Answer: 22.4 µM (inactive)

Question: And the GI50 (SK-MEL-2)?
Answer: 2.38 µM (inactive)

Question: What about the GI50 (SK-OV-3) of the same molecule?
Answer: 13.2 µM (inactive)

Question: What about the GI50 (SN12C) of the same molecule?
Answer: 11.7 µM (inactive)

Question: What about the GI50 (SNB-19) of the same molecule?
Answer: 19.5 µM (inactive)

Question: And the GI50 (SNB-75)?
Answer: 21.2 µM (inactive)

Question: What about the GI50 (SR) of the same molecule?
Answer: 13.9 µM (inactive)

Question: What about the GI50 (SW-620) of the same molecule?
Answer: 22.9 µM (inactive)

Question: And the GI50 (TK-10)?
Answer: 25.1 µM (inactive)

Question: What about the GI50 (U-251) of the same molecule?
Answer: 17.4 µM (inactive)

Question: What about the GI50 (UACC-257) of the same molecule?
Answer: 21.9 µM (inactive)

Question: What about the GI50 (UACC-62) of the same molecule?
Answer: 9.51 µM (inactive)

Question: And the GI50 (UO-31)?
Answer: 29.6 µM (inactive)
